# Measured values published in US20260265195A1, “SARM1 MODULATORS, PREPARATIONS, AND USES THEREOF” (SIRONAX LTD, priority 2022, published 2026).
# pIC50: −log10 of the molar value.
# Biological target: T1, SARM1 (50-724) (Homo sapiens, UniProt Q6SZW1)
# T1 construct: Purified SARM1 (50-724) with a final concentration of 2 nM
# T1 sequence (Q6SZW1 50-724): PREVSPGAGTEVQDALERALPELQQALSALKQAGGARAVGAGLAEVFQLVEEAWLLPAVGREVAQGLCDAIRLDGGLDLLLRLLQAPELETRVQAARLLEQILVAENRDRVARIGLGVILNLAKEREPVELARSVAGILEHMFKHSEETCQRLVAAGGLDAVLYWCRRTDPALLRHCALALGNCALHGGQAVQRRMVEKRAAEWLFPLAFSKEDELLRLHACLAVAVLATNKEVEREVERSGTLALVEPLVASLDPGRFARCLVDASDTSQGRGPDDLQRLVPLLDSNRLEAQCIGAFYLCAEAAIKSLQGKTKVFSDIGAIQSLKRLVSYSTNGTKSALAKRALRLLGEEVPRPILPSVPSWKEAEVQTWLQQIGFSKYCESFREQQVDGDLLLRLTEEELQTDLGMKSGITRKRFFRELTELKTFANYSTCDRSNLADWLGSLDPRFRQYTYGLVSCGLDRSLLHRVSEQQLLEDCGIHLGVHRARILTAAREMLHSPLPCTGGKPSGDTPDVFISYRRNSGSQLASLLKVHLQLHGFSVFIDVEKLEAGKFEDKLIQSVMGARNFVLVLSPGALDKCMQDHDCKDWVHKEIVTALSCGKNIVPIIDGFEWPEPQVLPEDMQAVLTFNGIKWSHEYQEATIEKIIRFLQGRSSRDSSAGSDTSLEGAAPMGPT
# Test: SARM1 (50-724) enzymatic assay (NMN-activated NAD+ hydrolysis, LC-MS/MS readout)
# Assay type: biochemical
# Details: purified SARM1 (50-724) 2 nM, 200 μM NMN activator, 100 μM NAD+ substrate, 1 h at room temperature, read-out: IC50 (SARM1 inhibitory activity)
# Experimental: Example II. SARM1 (50-724) Enzymatic Assay
# An enzymatic assay was performed in a 384-well plate using Dulbecco's phosphate-buffered saline (PBS) as the reaction buffer. Purified SARM1 (50-724) with a final concentration of 2 nM was pre-incubated with a test compound at 1% DMSO final assay concentration for 15 min at room temperature. The reaction was initiated by adding a mixture of 200 μM nicotinamide mononucleotide (NMN) as activator and 100 μM NAD^+ as substrate. After 1 h of incubation at room temperature, the reaction was terminated with 10 times volume of 70% acetonitrile, then centrifuged at 3800 rpm for 10 min. The samples were analyzed using LC-MS/MS after diluted to a proper concentration by 10 mM ammonium acetate (pH 9.75).
# ND means “not determined.”
row,Compound,pIC50
1,"CNCCN(C(=O)c1nc2cc(C)ccc2[nH]1)C1CCCC1 [Compound 63, N-cyclopentyl-5-methyl-N-(2-(methylamino)ethyl)-1H-benzo[d]imidazol-2-carboxamide]",≤ 6.00
2,"Cc1ccc2[nH]c(C(=O)N(CCN(C)C)C3CCCC3)nc2c1 [Compound 64, N-cyclopentyl-N-(2-(dimethylamino)ethyl)-5-methyl-1H-benzo[d]imidazole-2-carboxamide]",≤ 6.00
3,"Cc1ccc2[nH]c(C(=O)N(CC3COC3)C3CCCC3)nc2c1 [Compound 65, N-cyclopentyl-5-methyl-N-(oxetan-3-ylmethyl)-1H-benzo[d]imidazole-2-carboxamide]",≤ 6.00
4,"Cc1ccc2[nH]c(C(=O)N(C)C3CCCC3)c(CN)c2c1 [Compound 68, 3-(aminomethyl)-N-cyclopentyl-N,5-dimethyl-1H-indole-2-carboxamide]",≤ 6.00
5,"Cc1ccc2[nH]c(C(=O)N(C)c3cccc(Cl)c3Cl)c(C#N)c2c1 [Compound 69, 3-cyano-N-(2,3-dichlorophenyl)-N,5-dimethyl-1H-indole-2-carboxamide]",≥ 7.00
6,"Cc1ccc2[nH]c(C(=O)N(C)C3CCCC3)c(C#N)c2c1 [Compound 70, 3-cyano-N-cyclopentyl-N,5-dimethyl-1H-indole-2-carboxamide]",6.30 to 7.00
7,"Cc1ccc2[nH]c(C(=O)N(CCO)c3cccc(Cl)c3Cl)c(C#N)c2c1 [Compound 71, 3-cyano-N-(2,3-dichlorophenyl)-N-(2-hydroxyethyl)-5-methyl-1H-indole-2-carboxamide]",≥ 7.00
8,"Cc1ccc2[nH]c(C(=O)N(C)C3CCCC3)c(CNc3nc(C(N)=O)cs3)c2c1 [Compound 73, 2-(((2-(cyclopentyl(methyl)carbamoyl)-5-methyl-1H-indol-3-yl)methyl)amino)thiazole-4-carboxamide]",6.30 to 7.00
9,"Cc1ccc2[nH]c(C(=O)N(C)c3cccc(Cl)c3Cl)c(CNc3nc(C(N)=O)c(C(C)C)s3)c2c1 [Compound 74, 2-(((2-((2,3-dichlorophenyl)(methyl)carbamoyl)-5-methyl-1H-indol-3-yl)methyl)amino)-5-isopropylthiazole-4-carboxamide]",≥ 7.00
10,"Cc1ccc2[nH]c(C(=O)N(C)C3CCCC3)c(COc3nccs3)c2c1 [Compound 75, N-cyclopentyl-N,5-dimethyl-3-((thiazol-2-yloxy)methyl)-1H-indole-2-carboxamide]",6.00 to 6.30
11,"Cc1ccc2[nH]c(C(=O)N(C)C3CCCC3)c(CNc3nccs3)c2c1 [Compound 76, N-cyclopentyl-N,5-dimethyl-3-((thiazol-2-ylamino)methyl)-1H-indole-2-carboxamide]",6.30 to 7.00
12,"Cc1ccc2[nH]c(C(=O)N(C)C3CCCC3)c(CNc3ncc[nH]3)c2c1 [Compound 77, 3-(((1H-imidazol-2-yl)amino)methyl)-N-cyclopentyl-N,5-dimethyl-1H-indole-2-carboxamide]",≤ 6.00
13,"Cc1ccc2[nH]c(C(=O)N(C)C3CCCC3)c(CNc3cncs3)c2c1 [Compound 78, N-cyclopentyl-N,5-dimethyl-3-((thiazol-5-ylamino)methyl)-1H-indole-2-carboxamide]",6.30 to 7.00
14,"Cc1ccc2[nH]c(C(=O)N(C)c3cccc(Cl)c3Cl)c(CNc3nccs3)c2c1 [Compound 79, N-(2,3-dichlorophenyl)-N,5-dimethyl-3-((thiazol-2-ylamino)methyl)-1H-indole-2-carboxamide]",≥ 7.00
15,"Cc1ccc2[nH]c(C(=O)N(C)C3CCCC3)c(CNc3ncco3)c2c1 [Compound 80, N-cyclopentyl-N,5-dimethyl-3-((oxazol-2-ylamino)methyl)-1H-indole-2-carboxamide]",≥ 7.00
16,"Cc1ccc2[nH]c(C(=O)N(C)C3CCCC3)c(CNc3cn[nH]c3)c2c1 [Compound 81, 3-(((1H-pyrazol-4-yl)amino)methyl)-N-cyclopentyl-N,5-dimethyl-1H-indole-2-carboxamide]",≤ 6.00

row,Compound,pIC50
1,"Cc1ccc2[nH]c(C(=O)N(C)C3CCCC3)c(CNc3ccccn3)c2c1 [Compound 82, N-cyclopentyl-N,5-dimethyl-3-((pyridin-2-ylamino)methyl)-1H-indole-2-carboxamide]",6.30 to 7.00
2,"Cc1ccc2[nH]c(C(=O)N(C)C3CCCC3)c(CNc3cc(C)[nH]n3)c2c1 [Compound 83, N-cyclopentyl-N,5-dimethyl-3-(((5-methyl-1H-pyrazol-3-yl)amino)methyl)-1H-indole-2-carboxamide]",6.30 to 7.00
3,"Cc1ccc2[nH]c(C(=O)N(C)C3CCNCC3)c(CNc3ccccn3)c2c1 [Compound 84, N,5-dimethyl-N-(piperidin-4-yl)-3-((pyridin-2-ylamino)methyl)-1H-indole-2-carboxamide]",≤ 6.00
4,"Cc1ccc2[nH]c(C(=O)N(C)C3CCN(C(=O)OC(C)(C)C)CC3)c(CNc3ccccn3)c2c1 [Compound 85, tert-butyl 4-(N,5-dimethyl-3-((pyridin-2-ylamino)methyl)-1H-indole-2-carboxamido)piperidine-1-carboxylate]",≤ 6.00
5,"Cc1ccc2[nH]c(C(=O)N(C)C3CCN(C)CC3)c(CNc3ccccn3)c2c1 [Compound 86, N,5-dimethyl-N-(1-methylpiperidin-4-yl)-3-((pyridin-2-ylamino)methyl)-1H-indole-2-carboxamide]",≤ 6.00
6,"Cc1ccc2[nH]c(C(=O)N3CCCCC3)c(CNc3ccccn3)c2c1 [Compound 87, (5-methyl-3-((pyridin-2-ylamino)methyl)-1H-indol-2-yl)(piperidin-1-yl)methanone]",≤ 6.00
7,"Cc1ccc2[nH]c(C(=O)N(C)CCC(C)C)c(CNc3ccccn3)c2c1 [Compound 88, N-isopentyl-N,5-dimethyl-3-((pyridin-2-ylamino)methyl)-1H-indole-2-carboxamide]",≤ 6.00
8,"Cc1ccc2[nH]c(C(=O)NC(C)CC(C)C)c(CNc3ccccn3)c2c1 (stereo not shown) [Compound 89, 5-methyl-N-(4-methylpentan-2-yl)-3-((pyridin-2-ylamino)methyl)-1H-indole-2-carboxamide]",6.00 to 6.30
9,"Cc1ccc2[nH]c(C(=O)N(C)C3CCOCC3)c(CNc3ccccn3)c2c1 [Compound 90, N,5-dimethyl-3-((pyridin-2-ylamino)methyl)-N-(tetrahydro-2H-pyran-4-yl)-1H-indole-2-carboxamide]",≤ 6.00
10,"Cc1ccc2[nH]c(C(=O)N(C)C3CCCCC3)c(CNc3ccccn3)c2c1 [Compound 91, N-cyclohexyl-N,5-dimethyl-3-((pyridin-2-ylamino)methyl)-1H-indole-2-carboxamide]",6.30 to 7.00
11,"Cc1ccc2[nH]c(C(=O)N(C)C3CCCC3)nc2c1C [Compound 92, N-cyclopentyl-N,6,7-trimethyl-1H-benzo[d]imidazole-2-carboxamide]",6.30 to 7.00
12,"CN(C(=O)c1nc2c(C3CC3)cccc2[nH]1)C1CCCC1 [Compound 93, N-cyclopentyl-4-cyclopropyl-N-methyl-1H-benzo[d]imidazole-2-carboxamide]",6.00 to 6.30
13,"CCc1cccc2[nH]c(C(=O)N(C)C3CCCC3)nc12 [Compound 94, N-cyclopentyl-4-ethyl-N-methyl-1H-benzo[d]imidazole-2-carboxamide]",≤ 6.00
14,"CN(C(=O)c1nc2c(C#N)cccc2[nH]1)C1CCCC1 [Compound 95, 4-cyano-N-cyclopentyl-N-methyl-1H-benzo[d]imidazole-2-carboxamide]",≤ 6.00
15,"Cc1ccc2[nH]c(C(=O)N(C)C3CCCC3)c(C(N)=O)c2c1 [Compound 96, N2-cyclopentyl-N2,5-dimethyl-1H-indole-2,3-dicarboxamide]",≥ 7.00
